Experimental data from ChEMBL document CHEMBL1126836, “Antiviral activity of C-alkylated purine nucleosides obtained by cross-coupling with tetraalkyltin reagents” (1993).
Converted amounts (≈) assume the structure as drawn.

Tests used:
Format in all cases: functional
Settings in all cases: Homo sapiens
E6SM [1] = experiment: Tested for minimum inhibitory concentration against vesicular stomatitis virus (VSV) in E6SM cells
HeLa [2] = experiment: Tested for minimum inhibitory concentration against RSV in HeLa cells
HeLa [3] = experiment: Tested for minimum cytotoxic concentration on RSV (respiratory syncytial virus)-induced cytopathicity in HeLa cells
E6SM [4] = experiment: Tested for minimum cytotoxic concentration on virus-induced cytopathicity in E6SM cells
E6SM [5] = experiment: Tested for minimum inhibitory concentration against HSV-1 (KOS strain) in E6SM cells
E6SM [6] = experiment: Tested for minimum inhibitory concentration against Vaccinia virus in E6SM cells
E6SM [7] = experiment: Tested for minimum inhibitory concentration against HSV-2 ([…] strain) in E6SM cells
E6SM [8] = experiment: Tested for minimum inhibitor concentration against vesicular stomatitis virus (VSV) in E6SM cells.
E6SM [9] = experiment: Tested for minimum inhibitory concentration against vesicular stomatitis virus (VSV) in E6SM cells.
E6SM [10] = experiment: Tested for minimum inhibitor concentration against vesicular stomatitis virus (VSV) in E6SM cells
HeLa [11] = experiment: Tested for minimum inhibitor concentration against RSV in HeLa cells
HeLa [12] = experiment: Tested for minimum inhibitory concentration against RSV (respiratory syncytial virus) in HeLa cells

SMILES | MIC (E6SM [1]) [µg/mL] | MIC (HeLa [2]) [µg/mL] | MCC (HeLa [3]) [µg/mL] | MCC (E6SM [4]) [µg/mL] | MIC (E6SM [5]) [µg/mL] | MIC (E6SM [6]) [µg/mL] | MIC (E6SM [7]) [µg/mL] | MIC (E6SM [8]) [µg/mL] | MIC (E6SM [9]) [µg/mL] | MIC (E6SM [10]) [µg/mL] | MIC (HeLa [11]) [µg/mL] | MIC (HeLa [12]) [µg/mL]
Cc1nc2c(N)ncnc2n1C1O[C@H](CO)[C@@H](O)[C@H]1O (some centres not stated) | > 200 | 4 (≈ 14.2 µM) | 20 | > 200 | > 100 | 0.2 (≈ 0.711 µM) | – | – | – | – | – | –
C=Cc1nc2c(N)ncnc2n1[C@@H]1O[C@H](CO)[C@@H](O)[C@H]1O | – | 4 (≈ 13.6 µM) | 70 | > 400 | 2 (≈ 6.82 µM) | 7 (≈ 23.9 µM) | 40 (≈ 136 µM) | – | – | – | – | –
O=c1[nH]c(=O)n([C@H]2C[C@H](O)[C@@H](CO)O2)cc1/C=C/Br [BRIVUDINE] | – | – | – | > 400 | 0.02 (≈ 0.06 µM) | 0.4 (≈ 1.2 µM) | – | > 400 | – | – | – | –
C=Cc1ncnc2c1ncn2C1O[C@H](CO)[C@@H](O)[C@H]1O (some centres not stated) | – | > 4 | 4 | 10 | 2 (≈ 7.19 µM) | > 4 | – | – | > 4 | – | – | –
C=Cc1nc2c(N)ncnc2n1C1CCC(CO)O1 (configuration not stated) | – | – | – | – | > 100 | – | > 20 | – | – | – | – | –
NC(=O)c1ncn([C@@H]2O[C@H](CO)[C@@H](O)[C@H]2O)n1 [RIBAVIRIN] | – | – | – | > 400 | > 300 | 70 (≈ 287 µM) | – | – | – | 20 (≈ 81.9 µM) | – | –
Nc1nccc2c1ncn2[C@@H]1O[C@H](CO)[C@@H](O)[C@H]1O | 0.7 (≈ 2.63 µM) | – | – | > 400 | > 400 | 2 (≈ 7.51 µM) | – | – | – | – | – | –
CCc1nc2c(N)ncnc2n1C1O[C@H](CO)[C@@H](O)[C@H]1O (some centres not stated) | > 200 | 10 (≈ 33.9 µM) | 100 | > 100 | > 100 | 0.2 (≈ 0.677 µM) | – | – | – | – | – | –
CCc1nc(N)c2ncn(C3O[C@H](CO)[C@@H](O)[C@H]3O)c2n1 (some centres not stated) | – | – | 4 | > 10 | > 10 | 7 (≈ 23.7 µM) | – | – | – | > 10 | 0.8 (≈ 2.71 µM) | –
Cc1nc2c(N)ncnc2n1C1CCC(CO)O1 (configuration not stated) | – | – | – | – | > 100 | – | > 20 | – | – | – | – | –
Cc1ncnc2c1ncn2[C@@H]1O[C@H](CO)[C@@H](O)[C@H]1O | – | – | 0.8 | 1 | 0.4 (≈ 1.5 µM) | 0.04 (≈ 0.15 µM) | – | – | 0.4 (≈ 1.5 µM) | – | – | 0.4 (≈ 1.5 µM)
